This note sets out measurements from patent US20260347403A1, “FUNGICIDAL COMPOUND” (priority 2022, published 2026).

This assay relates to Puccinia recondita. As to the kind of experiment: Leaf disc mixture assay with malonomicin, Puccinia recondita, preventive spray timing, 8 dpi. In kind it is in vivo, Puccinia recondita on wheat (cultivar Kanzler). The following applies: compound of Formula I(a) lines 1-A to 2-D = 200, 100, 50, 25, 12.5, 6.25, 3.13, 0 ppm. Here is the method: A stock solution for the lipopeptide compound of Formula I(a) was produced in DMSO (max. 10 mg/ml). Malonomicin was produced according to Law et al, 2018 (Nature Catalys is |VOL 1|DECEMBER 2018|977-984). A stock solution of malonomicin was produced in water plus 0.025% Tween®20.
Assays to test efficacy of mixtures of compound of Formula I(a) in combination with malonomicin on the control of fungal pathogens in a leaf disc assay were designed for two 24well plates.
Table 22 and Table 23. Outline of 24well testplate (1) and testplate (2) including concentration of compounds sprayed per well. The upper number in the cell indicates compound of Formula I(a) concentration (ppm), the lower number malonomicin concentration (ppm). Column (1) holds a dilution series of compound of Formula I(a), row (2-D) hold a dilution series of malonomicin. Well 2-D-(1) represents an untreated check. This design was applied for tests including Puccinia recondita (EPPO code: PUCCRE) with preventive and curative spray timing.
A first set of master plates with 1× concentrated spray solution of the lipopeptide compound of Formula I(a) stock diluted in water with concentrations according to table 22, table 23, table 25 or table 26, respectively, was prepared. Each well contained 2% DMSO and 0.025% Tween20. Accordingly, a second set of master plates with 1× concentrated malonomicin stock diluted in water was prepared. Each well of the second set contained 0.025% Tween20. Leaf segments placed on agar in 24well plates were sprayed with 8 μl of solution from the master plate containing the lipopeptide compound of Formula I(a) and the leaf segments were let to dry, followed 2 hours later by 8 μl of solution from the master plate containing malonomicin. After second sprays had dried, leaf segments were infected with fungal spores to obtain a preventive application timing. Alternatively, leaf segments infected one day before spray of the compounds were used, resulting in a curative spray timing. In addition, several plates were produced where leaf segments were sprayed 2× in absence of test compound (with only DMSO and Tween20), representing the untreated check samples. For each leaf segment percent leaf coverage of disease symptoms was assessed. Percent leaf coverage reduction relative to the untreated check was calculated. Efficacy of the mixtures was tested in duplicate and on different fungal species. Reported efficacy values are the average of two replicate results.
Puccinia recondita (EPPO Code: PUCCRE) with Preventive Spray Timing.
Wheat (cultivar Kanzler) leaf segments are placed on agar in multiwell plates (24-well format) and sprayed with test solutions (8 ul per well). After drying, the leaf disks are inoculated with a spore suspension of the fungus. After appropriate incubation the activity of a compound is assessed 8 dpi (days after inoculation) as preventive fungicidal activity.

Consider `NC[C@@H]1NC(=O)C(C(=O)CC(NC(=O)[C@@H](N)CO)(C(=O)O)C(=O)O)=C1O` [malonomicin, {[(2S)-2-amino-3-hydroxypropanoyl]amino}{2-[(5S)-5-(aminomethyl)-4-hydroxy-2-oxo-2,5-dihydro-1H-pyrrol-3-yl]-2-oxoethyl}malonic acid], for which the “control of fungal growth (% reduction of symtoms on the leaf segment as compared to untreated check)” value is on record as 100% (column (2): malonomicin 200 ppm); 100% (column (3): malonomicin 20 ppm); 80% (column (4): malonomicin 6.67 ppm); 10% (column (5): malonomicin 2.22 ppm); 0% (column (6): malonomicin 0.74 ppm).
